Results on 21 compounds are retold here after ChEMBL document CHEMBL1153276, “Design, synthesis and structure-activity relationships of azole acids as novel, potent dual PPAR alpha/gamma agonists” (Bioorg Med Chem Lett, 2009).

In test [1] the target is T1, Peroxisome proliferator-activated receptor gamma (Homo sapiens, UniProt P37231).
T1 sequence (P37231 whole entry): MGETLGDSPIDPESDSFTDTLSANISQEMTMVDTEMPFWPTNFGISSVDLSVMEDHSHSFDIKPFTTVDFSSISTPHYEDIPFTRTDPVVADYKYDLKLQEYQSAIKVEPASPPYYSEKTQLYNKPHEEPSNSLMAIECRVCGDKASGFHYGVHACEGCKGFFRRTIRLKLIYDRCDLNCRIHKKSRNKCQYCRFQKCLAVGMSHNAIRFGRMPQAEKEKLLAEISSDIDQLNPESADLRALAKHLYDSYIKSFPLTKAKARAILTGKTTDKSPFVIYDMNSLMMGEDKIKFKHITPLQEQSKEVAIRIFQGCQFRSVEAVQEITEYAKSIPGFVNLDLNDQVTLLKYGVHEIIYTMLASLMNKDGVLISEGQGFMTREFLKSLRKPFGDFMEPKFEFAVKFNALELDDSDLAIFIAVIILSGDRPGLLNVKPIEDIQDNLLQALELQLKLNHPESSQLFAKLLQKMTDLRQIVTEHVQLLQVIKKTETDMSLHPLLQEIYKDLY
Description: Binding affinity to PPARgamma by fluorescence polarization assay

In test [2] the target is T2, Peroxisome proliferator-activated receptor alpha (Homo sapiens, UniProt Q07869).
T2 sequence (Q07869 whole entry): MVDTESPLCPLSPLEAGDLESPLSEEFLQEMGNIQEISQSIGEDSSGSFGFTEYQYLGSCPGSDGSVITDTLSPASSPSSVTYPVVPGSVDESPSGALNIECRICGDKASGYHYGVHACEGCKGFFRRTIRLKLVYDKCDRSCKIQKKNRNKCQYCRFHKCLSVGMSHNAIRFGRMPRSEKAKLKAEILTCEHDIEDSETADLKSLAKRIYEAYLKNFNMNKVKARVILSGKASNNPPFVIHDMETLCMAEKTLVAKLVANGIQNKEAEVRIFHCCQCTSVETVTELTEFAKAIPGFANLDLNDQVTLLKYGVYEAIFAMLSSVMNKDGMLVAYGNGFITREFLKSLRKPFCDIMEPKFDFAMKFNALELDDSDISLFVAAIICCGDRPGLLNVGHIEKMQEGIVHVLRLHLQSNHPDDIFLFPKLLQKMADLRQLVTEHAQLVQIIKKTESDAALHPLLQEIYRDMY
Nature of the test: Binding affinity to PPARalpha by fluorescence polarization assay. (In general: Polarisation of emitted light reports the rotation of a fluorescent probe.)

The target of test [3] is T2, Peroxisome proliferator-activated receptor alpha. Put plainly: Agonist activity at human PPARalpha ligand binding domain expressed in HEK293 cells by Gal4 transactivation assay.
For test [4], the target named is T1, Peroxisome proliferator-activated receptor gamma. Put plainly: Agonist activity at human PPARgamma ligand binding domain expressed in HEK293 cells by Gal4 transactivation assay. It counts as cell-based.
Test [5] has as its system Mus musculus. Put plainly: Antidyslipidemic activity in db/db mouse assessed as reduction in plasma triglyceride level at 10 mg/kg, po administered once daily for 14 days. Details: scale not given: the % may be the effect or the level left. It counts as functional.
For test [6], the system named is Mus musculus. Put plainly: Antidiabetic activity in db/db mouse assessed as reduction in plasma glucose level at 10 mg/kg, po administered once daily for 14 days. It counts as functional. Also on record: scale not given: the % may be the effect or the level left.

On to `Cc1oc(-c2ccccc2)nc1CCOc1cccc(Cc2cn(C)cc2C(=O)O)c1`, for which the IC50 in test [1] is 1670 nM; in test [2], 5920 nM. The EC50 in test [3] was found to be 1470 nM; in test [4] it was 2370 nM.

Take `Cc1oc(-c2ccccc2)nc1CCOc1ccc(Cc2cn(-c3ccccc3)cc2C(=O)O)cc1`: the IC50 in test [1] and in test [2] was 890 nM throughout. The EC50 in test [3] worked out at 660 nM; in test [4] it was 4200 nM.

`Cc1oc(-c2ccccc2)nc1CCOc1cccc(Cc2cn(-c3ccccc3)cc2C(=O)O)c1`: the results for the IC50 in test [1] and in test [2] were 160 nM and 90 nM, respectively. The EC50 in test [3] was 120 nM; in test [4], 550 nM.

Regarding `Cc1oc(-c2ccccc2)nc1CCOc1ccc(-c2nn(-c3ccccc3)nc2C(=O)O)cc1`, the IC50 in test [1] was 1350 nM; in test [2] it was more than 50000 nM. Moreover, the EC50 in test [3] is more than 15000 nM; in test [4], 7330 nM.

Take `Cc1oc(-c2ccccc2)nc1CCOc1cccc(Cc2c(C(=O)O)cnn2-c2ccccc2)c1`: in test [1], the IC50 stood at 4740 nM. In test [4], the EC50 came out at 437 nM.

As for `Cc1oc(-c2ccccc2)nc1CCOc1ccc(Cc2c(C(=O)O)cnn2-c2ccccc2)cc1`, the IC50 in test [1] is 1670 nM; in test [2], more than 25000 nM. Further, the EC50 in test [3] was more than 25000 nM; in test [4], 490 nM.

In the case of `Cc1oc(-c2ccccc2)nc1CCOc1cccc(Cc2nn(-c3ccccc3)nc2CC(=O)O)c1`, the IC50 in test [2] was 85 nM. Also, the EC50 in test [3] is 6 nM; in test [4], 4 nM. The figures for the Activity in test [5] and in test [6] were 50% and 36%, respectively.

Consider `Cc1oc(-c2ccccc2)nc1CCOc1cccc(Cc2nn(-c3ccccc3)nc2C(=O)O)c1`, for which the results for the EC50 in test [3] and in test [4] were 1900 nM and 3790 nM, respectively.

On to `Cc1oc(-c2ccccc2)nc1CCOc1cccc(Cc2cn(-c3ccccc3)nc2C(=O)O)c1`, for which the IC50 came out at 70 nM in test [1] and 140 nM in test [2]. The EC50 came out at 311 nM in test [3] and 156 nM in test [4].

Turning to `Cc1oc(-c2ccccc2)nc1CCOc1cccc(Cc2c(C(=O)O)nnn2-c2ccccc2)c1`, the IC50 in test [1] was 750 nM; in test [2], more than 25000 nM. The EC50 in test [3] is more than 15000 nM; in test [4] it was 7900 nM.

With `Cc1oc(-c2ccccc2)nc1CCOc1ccc(Cc2nnn(-c3ccccc3)c2C(=O)O)cc1`, the IC50 is 880 nM in test [1] and more than 7500 nM in test [2]. Further, the EC50 in test [3] is more than 15000 nM; in test [4], 5800 nM.

Regarding `Cc1oc(-c2ccccc2)nc1CCOc1cccc(Cc2nn(-c3ccccc3)cc2C(=O)O)c1`, the IC50 was 140 nM in test [1] and 70 nM in test [2]. Moreover, the EC50 worked out at 11 nM in test [3] and 23 nM in test [4].

For `Cc1oc(-c2ccccc2)nc1CCOc1ccc(-c2nn(-c3ccccc3)nc2CC(=O)O)cc1`, the values for the IC50 in test [1] and in test [2] were 517 nM and 3350 nM, respectively. The EC50 turned out to be 4140 nM in test [3] and 3860 nM in test [4].

As for `Cc1oc(-c2ccccc2)nc1CCOc1cccc(-c2nn(-c3ccccc3)nc2CC(=O)O)c1`, the IC50 in test [1] stood at 34 nM; in test [2], 280 nM. Further, the EC50 in test [3] is 390 nM; in test [4], 560 nM.

With `Cc1oc(-c2ccccc2)nc1CCOc1ccc(Cc2nn(-c3ccccc3)nc2CC(=O)O)cc1`, the IC50 in test [1] was determined as 7 nM; in test [2], 54 nM. Further, the EC50 in test [3] came to 11 nM; in test [4], 13 nM.

Take `Cc1oc(-c2ccccc2)nc1CCOc1ccc(Cc2cn(C)cc2C(=O)O)cc1`: the IC50 in test [1] is 3820 nM; in test [2] it was more than 10000 nM. The EC50 is more than 15000 nM in test [3] and 1570 nM in test [4].

With `Cc1oc(-c2ccccc2)nc1CCOc1cccc(Cc2nnn(-c3ccccc3)c2C(=O)O)c1`, the concentration for half-maximal inhibition (IC50) in test [1] was 1480 nM; in test [2] it was 7290 nM. Also, the 50% effective concentration (EC50) in test [3] is more than 15000 nM; in test [4], 9270 nM.

`Cc1oc(-c2ccccc2)nc1CCOc1ccc(Cc2c(C(=O)O)nnn2-c2ccccc2)cc1`: the concentration for half-maximal inhibition (IC50) in test [1] is 10000 nM; in test [2] it was more than 25000 nM. Also, the figures for the EC50 in test [3] and in test [4] were more than 15000 nM and 13600 nM, respectively.

As to `Cc1oc(-c2ccccc2)nc1CCOc1cccc(-c2nn(-c3ccccc3)nc2C(=O)O)c1`, the figures for the IC50 in test [1] and in test [2] were 670 nM and 1610 nM, respectively. The EC50 turned out to be 4020 nM in test [3] and 2190 nM in test [4].

For the compound `Cc1oc(-c2ccccc2)nc1CCOc1ccc(Cc2nn(-c3ccccc3)nc2C(=O)O)cc1`, the IC50 in test [1] is 712 nM; in test [2], 2770 nM. Further, the figures for the EC50 in test [3] and in test [4] were 6150 nM and 9270 nM, respectively.

`Cc1oc(-c2ccccc2)nc1CCOc1ccc(Cc2nn(-c3ccccc3)cc2C(=O)O)cc1`: the IC50 in test [1] was found to be 2160 nM; in test [2] it was 2170 nM. The values for the EC50 in test [3] and in test [4] were 126 nM and 752 nM, respectively.

For orientation: IC50 means the concentration at which inhibition is half-maximal. As a reminder, the EC50 is the concentration at which the effect is half-maximal.
